Columns and labels:
[1] = tested on: A549 human non-small cell lung tumor cells; experiment: SRB (sulforhodamine B) assay, antiproliferative activity, A549; format: cell-based
Method: (§1) Anticancer activities of the inclusion compounds synthesized in Synthesis Examples 1 and 2 were measured as follows.
(§2) First, the oxaliplatin-cucurbitu[7]ril inclusion compounds synthesized in Synthesis Examples 1 and 2, were freeze-dried to prepare samples. Tumor cells used were A 549 (human non-small cell lung), SKOV-3 (human ovarian), SKMEL-2 (human melanoma), XF498 (human CNS), and HCT-15 (human colon), and analyzed by SRB (sulforhodamine B) assay.

[2] = tested on: SKOV-3 human ovarian tumor cells; experiment: SRB (sulforhodamine B) assay, antiproliferative activity, SKOV-3; format: cell-based
Method: as §1, §2

[3] = tested on: SKMEL-2 human melanoma tumor cells; experiment: SRB (sulforhodamine B) assay, antiproliferative activity, SKMEL-2; format: cell-based
Method: as §1, §2

[4] = tested on: XF-498 human CNS tumor cells; experiment: SRB (sulforhodamine B) assay, antiproliferative activity, XF-498; format: cell-based
Method: as §1, §2

[5] = tested on: HCT-15 human colon tumor cells; experiment: SRB (sulforhodamine B) assay, antiproliferative activity, HCT-15; format: cell-based
Method: as §1, §2

[6] = Isothermal microcalorimeter titration of oxaliplatin and cucurbitu[7]ril; format: physicochemical; settings: 25° C., 20 mM oxaliplatin, 1 mM cucurbitu[7]ril

Row | SMILES | Antiproliferative activity (ED50/μM) [1] [µM] | Antiproliferative activity (ED50/μM) [2] [µM] | Antiproliferative activity (ED50/μM) [3] [µM] | Antiproliferative activity (ED50/μM) [4] [µM] | Antiproliferative activity (ED50/μM) [5] [µM] | binding constant [6] | binding enthalpy [6] [kcal/mol]
1 | N[C@@H]1CCCC[C@H]1N.O=C([O-])C(=O)[O-].[Pt+2] (relative stereo) [Oxaliplatin, (trans-L-diaminocyclohexane)oxalatoplatinum (II)] | 0.42 | 0.67 | 0.97 | 0.49 | 0.90 | 2.39×10^5(±0.4) M^−1 | -6.33
2 | N.N.[Cl][Pt][Cl] [Cisplatin] | 1.17 | 2.87 | 3.08 | 0.46 | 1.32 | – | –

From patent publication US7459471B2, “Inclusion compound comprising cucurbituril derivatives as host molecule and pharmaceutical composition comprising the same” (Postech Foundation, priority 2001, dated 2008)
